Test results published in patent US20240165123A1, “USE OF A COMPOUND CONTAINING A TRICYCLIC HETEROARYL GROUP” (CSPC Zhongqi Pharmaceutical Technology (Shijiazhuang) Co., …, priority 2021, published 2024).
Read-outs that look alike come from different tables or passages of the source.

Key:
[1] = tested on: IMQ-induced mouse psoriasis model; experiment: Pharmacodynamic test in the IMQ-induced mouse psoriasis model; format: in vivo, female Balb/c mice; set-up: key to Skin PASI score Erythema / Skin PASI score Scaling / Skin PASI score Thickness: PASI component score, 0-4 points; key to Skin PASI Total Score: sum of erythema, scaling, thickness scores (each 0-4); key to Skin pathological score: sum of histopathology criterion points; details: Dex 3 mpk PO qd
From the text: The purpose of this test was to evaluate the pharmacodynamics of Compound (I) in the IMQ (5% imiquimod cream cream)-induced mouse psoriasis model. One of the clinical adverse effects of imiquimod is to induce the onset of psoriasis.
• Test medicament: Compound (I) • Positive control medicament: dexamethasone (Dex) • Vehicle: 0.4% Tween 80/0.5% methylcellulose.
• female Balb/c mice aged 5-6 weeks, number: 70.
The animals were randomly divided into seven groups according to the body weights on the day before the start of the experiment.
The animals were shaved on their back one day before applying the medicament, forming a skin exposure area having a size of about 2 cm×3 cm. The mice were induced by IMQ, and applied with 62.5 mg of 5% imiquimod cream on the bare back and the right ear at regular intervals every day for 14 days. Mice in the normal control group were applied with vaseline on the bare back and the right ear at regular intervals every day.
The skin thickness was measured daily from the first day of the test until the end of the test.
The skin thickness measurement method was as follows: the back skin and the subcutaneous tissue of the mouse were pinched with the thumb and the index finger of the left hand in the same direction as the mouse body; the skinfold thickness was measured 1 cm away from the pinched part of the left hand (near the center of the molding part) with a digital thickness gauge (with millesimal reading) held in the right hand (model BK-3281, manufacturer: Shanghai Niuhui). The thickness was in mm, and the actual thickness was the half of the measured thickness (the skin thickness=the measured value/2).
The ear thickness was measured daily (at the center of the auricle).
Skin photographs were taken daily from the first day of the test until the end of the test.
The clinical symptoms were evaluated with the PASI evaluation standard from three indicators of the erythema (Erythema), the scale (Scaling) and the skin thickness (Thickness), and scored with 0-4 points. The total score was obtained by summing the three scores. The PASI evaluation standard was as follows: 0, asymptomatic; 1, mild; 2, moderate; 3, severe; 4, extremely severe.
Erythema: 0—no erythema visible; 1—light red; 2—red; 3—dark red; 4—extremely dark red.
Scaling: 0—no visible scale on the skin surface; 1—part of the skin lesion surface covered with scales; 2—most of the skin lesion surface covered with scales; 3—almost all of the skin lesion region covered with scales; 4—all of the skin lesion region covered with scales.
Dryness and pruritus are not included in the total score.
On the 14th day of the test, the spleen weight was collected.
After the test, all mice were euthanized by excessive inhalation of carbon dioxide. The skin was collected and divided into four parts, one of which was fixed in a tissue fixative solution for 24 hours for the pathological is detection. It was dehydrated, then embedded in paraffin and made into 4-micron sections. Skin sections were stained with hematoxylin eosin to observe the infiltration of the stratum corneum, the epidermal layer, the dermis layer and the inflammatory cell. When measuring the thickness of the epidermal layer, the stained skin sections were scanned with a Leca Aperio CS2 scanner at 200×magnification, and then the histopathological changes were observed and scored.
The specific criteria of the pathological score were as follows: munro microabscess found in the epidermal layer 2.0 points; hyperkeratosis 0.5 points; parakeratosis 1.0 points; the thinning or disappearing of the granular layer 1.0 points; the thickening of acanthosis 1.0 points; the extension and fluctuation of cuticular process 0.5, 1.0 and 1.5 points respectively according to the mild, moderate and severe degrees. […]

[2] = tested on: OXA-induced Balb/c mouse atopic dermatitis model; experiment: Pharmacodynamic test in the OXA-induced mouse atopic dermatitis model; format: in vivo, female Balb/c mice
From the text: The purpose of this test was to evaluate the pharmacodynamics of Compound (I) in the OXA-induced Balb/c mouse atopic dermatitis model. Repeated OXA stimulation of the dorsal skin of mice could produce a long-term inflammatory reaction. This model was closer to the clinical skin inflammation and was a common model for screening and evaluating compounds with anti-inflammatory activity.
Female Balb/c mice aged 8-9 weeks, number: 70
According to the body weight of animals in each group before administration, they were randomly divided into 7 groups with 10 animals in each group.
OXA induction was performed on the 7th day. The induction mode was to apply 5% OXA (dissolved in the acetone/olive oil (4/1) solvent) to the back of mice near the neck in an amount of 10 μL (1.5 cm×1.5 cm). Mice in the normal control group were applied with 10 μL of the acetone/olive oil (4/1) solvent in the same way. From the 1st da to 22nd day, the immunostimulation was performed, and 100 μL of 0.1% OXA (dissolved in the acetone/olive oil (4/1) solvent) was evenly applied on the back of mice near the neck. The application was performed every two days. Mice in the normal control group were applied with 100 μL of the acetone/olive oil (4/1) solvent in the same way. On the day of the immunostimulation, measuring the skin thickness, clinically scoring and photographing were required, and the OXA application was carried out after the above work was completed.
Compound (I) was administered by gavage twice a day (PO, bid) from the 1st to 22nd day. The administration was performed in the morning and completed before measuring the skin thickness, clinically scoring, photographing, and the OXA immunostimulation. The interval between two administrations was 8 hours.
Body weight data were recorded twice a week.
Skin thickness (1.5 cm×1.5 cm, the modeling area) was measured with a Mitutoyo digital indicator (Mitutoyo digimatic indicator, Type ID-C, USA) from the 1st to 22nd day. The measurement was performed every two days. If the skin thickness measurement and the OXA immunostimulation were performed on the same day, the skin thickness measurement would be preferred.
The skin in the modeling area was clinically scored according to the skin scoring criteria in Table 12 from the 1st to 22nd day and evaluated every two days. If the skin clinical scoring and the OXA immunostimulation were performed on the same day, the skin clinical scoring would be preferred.
At the end of the study, the tissue in the modeling area was stained with hematoxylin eosin for the skin pathological scoring and the epidermal thickness measurement.
After the mice were sacrificed, the dorsal skin was removed and fixed in 10% neutral formalin for 24 hours. It was dehydrated, then embedded in paraffin and made into 4-micron sections. The skin sections were stained with hematoxylin eosin, and the inflammatory cell infiltration and tissue changes in the stratum corneum, the epidermis layer and the dermis layer were observed under the microscope, and the pathological scores were made. The scoring criteria were: inflammatory cell aggregation and edema, which were divided into slight 1 point, moderate 2 points, and severe 3 points; telangiectasia, which was divided into slight 1 point, moderate 2 points, and severe 3 points.
The specific scoring criteria of inflammatory cell aggregation were as follows: (1) slight-1 point: inflammatory cells occupied a small amount of <10% of the dermal area of the skin; (2) moderate-2 points: inflammatory cells occupied 10%-50% of the dermal area of the skin; (3) severe-3 points: the inflammatory cells occupied greater than 50% of the dermal area of the skin. […]

[3] = tested on: MRL/lpr lupus erythematosus model mice; format: in vivo; set-up: key to Kidney IHC (IgG) pathological score, bilateral kidneys: product score; 0 negative, 1-3 low, 4-8 medium, 9-12 high; details: prednisone 6 mg/kg QD
Procedure: • female MRL/lpr mice aged 4 weeks, number: 50; • female C57BL/6 mice aged 4 weeks, number: 10.
According to the concentration of the serum anti-ds-DNA antibody, female MRL/lpr mice were randomly divided into five groups: model group: solvent (aqueous solution containing 0.4% Tween 80 and 0.5% methylcellulose) 10 mL/kg BID, positive control group: prednisone 6 mg/kg QD, compound (I) 20, 40 and 60 mg/kg BID groups, the administration volumes respectively: 10 mL/kg. In addition, female C57BL/6 mice served as the normal control group. The animals in the Compound (I) group and the model group were administrated with the medicament or the solvent by gavage twice a day starting from the beginning of five weeks of age with an interval of 8 hours between two administrations; prednisone was administered to the animals by gavage once a day from the beginning of five weeks of age; the administration was totally performed for 17 weeks.
Two mice in the model group died at 15 and 16 weeks of administration, respectively, and 8 mice remained at the end of the test; one mouse in the compound (I) 20 mg/kg bid group died in the later period of the 16th week of administration, and 9 mice remained at the end of the test; and no death of mice occurred in other groups.
The skin destructions on the face, ears and back of mice were observed and scored once a week for 17 times totally.
Scoring system: 1) red swelling and bleeding of the skin; 2) the extent of hair loss and skin dryness; 3) edema; 4) excoriation/corrosion; 5) lichenoid sclerotic plaque and other symptoms. The score of each item was as follows: normal=0 points; slight=1 point; moderate=2 points; severe=3 points. The severity of skin destruction was determined according to the total score of each evaluated symptom. […]
The lymph nodes of MRL/lpr mice were scored once a week for a total of 17 times during the test.
According to the lymph node diameter (cm), the score values were 0-6 points: • 0 point: normal; • 1 point: small (the diameter at one location of points on both sides was less than 1 cm); • 2 points: small (the diameters at two location of points on both sides were less than 1 cm); • 3 points: small (the diameters at three location of points on both sides were less than 1 cm); • 4 points: large (the diameter at one location of points on both sides was larger than 1 cm, the diameters at the other two location of points on both sides were less than 1 cm); • 5 points: large (the diameters at two location of points on both sides were larger than 1 cm, and the diameter at the other location of points on both sides was less than 1 cm); • 6 points: large (the diameters at three location of points on both sides were greater than 1 cm). […]
Kidney HE scoring criteria: […]
During the test, the concentration of serum anti-ds-DNA antibody of mice were detected every 4 weeks for 16 weeks.
At the end of the test, the serum cytokine levels of mice were detected by ELISA. […] See Table 25 and FIG. 17 for details.

[4] = Dexamethasone 3 mpk PO qd, 1st Day

C[C@@H]1C[C@H]2[C@@H]3CCC4=CC(=O)C=C[C@]4(C)[C@@]3(F)[C@@H](O)C[C@]2(C)[C@@]1(O)C(=O)CO [Dexamethasone, reference compound]
Ear thickness Left ([1]; 1st Day): 0.14 ± 0.00 mm
Ear thickness Right ([1]; 1st Day): 0.14 ± 0.00 mm
Ear thickness Right-Left ([1]; 1st Day): 0.00 ± 0.00 mm
Skin PASI Total Score ([1]; 1st Day): 0.00 ± 0.00
Skin PASI score Erythema ([1]; 1st Day): 0.00 ± 0.00
Skin PASI score Scaling ([1]; 1st Day): 0.00 ± 0.00
Skin PASI score Thickness ([1]; 1st Day): 0.00 ± 0.00
Skin thickness ([1]; 1st Day): 0.32 ± 0.00 mm
Ear thickness Left ([1]; 14th Day): 0.15 ± 0.00 mm
Ear thickness Right ([1]; 14th Day): 0.33 ± 0.01 mm
Ear thickness Right-Left ([1]; 14th Day): 0.18 ± 0.00 mm
Skin PASI Total Score ([1]; 14th Day): 4.10 ± 0.18
Skin PASI score Erythema ([1]; 14th Day): 2.10 ± 0.10
Skin PASI score Scaling ([1]; 14th Day): 1.10 ± 0.10
Skin PASI score Thickness ([1]; 14th Day): 0.90 ± 0.10
Skin thickness ([1]; 14th Day): 0.32 ± 0.01 mm
Epidermal thickness ([1]; after 14 days of treatment): 84.98 ± 7.40 μm
IL-6 content in skin (ELISA) ([1]; after 14 days of treatment): 607.20 ± 76.89 pg/g
Skin pathological score ([1]; after 14 days of treatment): 3.95 ± 0.50
Spleen weight ([1]; after 14 days of treatment): 93.79 ± 4.64 mg
Spleen weight/body weight (spleen index) ([1]; after 14 days of treatment): 6.17 ± 0.29 mg/g
TNF-alpha content in skin (ELISA) ([1]; after 14 days of treatment): 1172.53 ± 115.72 pg/g
Body weight [2, 4]: 18.08 ± 0.12 g
Skin clinical score [2, 4]: 0.4 ± 0.16
Skin thickness (modeling area) ([2]; Dexamethasone 3 mpk PO qd, 1st day): 0.532 ± 0.012 mm
Body weight ([2]; Dexamethasone 3 mpk PO qd, −7th Day): 18.08 ± 0.12 g
Influence on the body weight of mice ([2]; dexamethasone 3 mpk PO qd, end of the study): decreased significantly

C[C@]12C=CC(=O)C=C1CC[C@@H]1[C@@H]2C(=O)C[C@@]2(C)[C@H]1CC[C@]2(O)C(=O)CO [prednisone, reference compound]
Area under the urine protein curve ([3]; 16 weeks): 2360.38 ± 161.30 wk*mg/L
Kidney HE pathological score of both kidneys, Activity index ([3]; after 17 weeks of treatment): 1.80 ± 0.36
Kidney HE pathological score of both kidneys, Chronicity index ([3]; after 17 weeks of treatment): 4.90 ± 0.62
Kidney HE pathological score of both kidneys, Tubulointerstitial lesions ([3]; after 17 weeks of treatment): 3.60 ± 0.45
Kidney IHC (IgG) pathological score, bilateral kidneys ([3]; after 17 weeks of treatment): 7.90 ± 0.77
Skin HE pathological score ([3]; after 17 weeks of treatment): 1.80 ± 0.36
Total kidney weight ([3]; after 17 weeks of treatment): 0.3526 ± 0.01 g
Total kidney weight/body weight % ([3]; after 17 weeks of treatment): 1.1050 ± 0.04%
IL-6 concentration in serum (ELISA) ([3]; end of the test): 19.91 ± 10.43 pg/mL
Spleen weight ([3]; end of the test): 0.0756 ± 0.01 g
Spleen weight/body weight % ([3]; end of the test): 0.2362 ± 0.03 %
TNF-alpha concentration in serum (ELISA) ([3]; end of the test): 5.50 ± 1.13 pg/mL
Total lymph node weight ([3]; end of the test): 0.1123 ± 0.03 g
Total lymph node weight/body weight % ([3]; end of the test): 0.3445 ± 0.08 %
Concentration of serum anti-ds-DNA antibody ([3]; week 0): 3.26 ± 0.30 µg/mL
Lymph node score ([3]; week 0): 0.0 ± 0.00
Skin score (skin destruction) ([3]; week 0): 0.0 ± 0.00
Concentration of serum anti-ds-DNA antibody ([3]; week 4): 183.55 ± 28.07 µg/mL
Skin score (skin destruction) ([3]; week 4): 0.0 ± 0.00
Lymph node score ([3]; week 6): 0.0 ± 0.00
Lymph node score ([3]; week 7): 0.2 ± 0.13
Concentration of serum anti-ds-DNA antibody ([3]; week 8): 363.75 ± 18.45 µg/mL
Skin score (skin destruction) ([3]; week 8): 0.3 ± 0.15
Lymph node score ([3]; week 9): 0.3 ± 0.15
Lymph node score ([3]; week 11): 0.0 ± 0.00
Concentration of serum anti-ds-DNA antibody ([3]; week 12): 619.78 ± 25.47 µg/mL
Lymph node score ([3]; week 12): 0.0 ± 0.00
Skin score (skin destruction) ([3]; week 12): 0.3 ± 0.15
Skin score (skin destruction) ([3]; week 14): 0.2 ± 0.13
Concentration of serum anti-ds-DNA antibody ([3]; week 16): 606.66 ± 26.65 µg/mL
Skin score (skin destruction) ([3]; week 16): 0.1 ± 0.10
Lymph node score ([3]; week 17): 0.0 ± 0.00
Skin score (skin destruction) ([3]; week 17): 0.1 ± 0.10
